Results from patent US10125134B2 (Mirati Therapeutics, Inc., priority 2016, dated 2018).
Like-named read-outs stand apart in the source and are kept apart here.

Assays:
[1] = test system: NCI-H358 cells (express KRas G12C), Phospho-ERK; assay: Cellular inhibition of KRas G12C: Phospho-ERK in NCI-H358 cells; assay type: cell-based; settings: pERK(Thr202/Tyr204) normalized with GAPDH, NCI-H358 cells, 3 hours, read-out: IC50
Summary of the method: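 IC50 derived by 4-parameter fit of GAPDH-normalized pERK(Thr202/Tyr204) signal, as percent of DMSO control. Signal came from in-cell immunodetection with infrared secondaries after 3 h compound exposure of KRas G12C NCI-H358 cells at 0.5% DMSO.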

KRas G12C = KRas G12C (Homo sapiens, UniProt P01116, C118S/C51S/C80L/G12C); assay: KRas G12C Modification Assay (LCMS detection of covalent adduct); assay type: binding; settings: normalized percent of control; tested at 5 μM concentration for 3 hours
Summary of the method: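 Cys-light KRas G12C mutant protein incubated with compound in K-Ras assay buffer, reactions quenched at set time points with 25 mM acetic acid and analysed by intact-protein LC/MS on a C-3 column. Deconvoluted mass heights expressed as percent of control (POC) relative to compound-free protein.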

CCN1CCC[C@H]1COc1nc2c(c(N3CCN(C(=O)/C=C/CN(C)C)[C@@H](CC#N)C3)n1)CCN(c1cccc3ccccc13)C2 [Example 400, 2-((S)-1-((E)-4-(dimethylamino)but-2-enoyl)-4-(2-(((S)-1-ethylpyrrolidin-2-yl)methoxy)-7-(naphthalen-1-yl)-5,6,7,8-tetrahydropyrido[3,4-d]pyrimidin-4-yl)piperazin-2-yl)acetonitrile]
IC50 ([1]; Homo sapiens, NCI-H358, 3 h): 0.0001 to 1 µM
POC (KRas G12C): C (“C”>50% POC)

C=CC(=O)N1CCN(c2nc(OC[C@@H]3CCCN3C)nc3c2CCN(c2cccc(Cl)c2C(F)(F)F)C3)CC1CC#N (stereo partly drawn) [Example 413, 2-(1-acryloyl-4-(7-(3-chloro-2-(trifluoromethyl)phenyl)-2-(((S)-1-methylpyrrolidin-2-yl)methoxy)-5,6,7,8-tetrahydropyrido[3,4-d]pyrimidin-4-yl)piperazin-2-yl)acetonitrile]
IC50 [1]: 0.0001 to 1 µM
POC (KRas G12C): C (“C”>50% POC)

C=CC(=O)N1CCN(c2nc(OC[C@@H]3CCCN3C)nc3c2CCN(c2cccc4cccc(CC)c24)C3)C[C@@H]1CC#N [Example 360, 2-[(2S)-4-[7-(8-ethyl-1-naphthyl)-2-[[(2S)-1-methylpyrrolidin-2-yl]methoxy]-6,8-dihydro-5H-pyrido[3,4-d]pyrimidin-4-yl]-1-prop-2-enoyl-piperazin-2-yl]acetonitrile]
IC50 ([1]; Homo sapiens, NCI-H358, 3 h): 0.0001 to 1 µM
POC (KRas G12C): C (“C”>50% POC)

C=CC(=O)N1CCN(c2nc(OC[C@@H]3CCN(C)C3)nc3c2CCN(c2cc(O)cc4ccccc24)C3)CC1CC#N (stereo partly drawn) [Example 179, 2-[4-[7-(3-hydroxy-1-naphthyl)-2-[[(3R)-1-methylpyrrolidin-3-yl]methoxy]-6,8-dihydro-5H-pyrido[3,4-d]pyrimidin-4-yl]-1-prop-2-enoyl-piperazin-2-yl]acetonitrile]
IC50 ([1]; Homo sapiens, NCI-H358, 3 h): 0.0001 to 1 µM
POC (KRas G12C): C (“C”>50% POC)

C=CC(=O)N1CCN(c2nc(OC[C@@H]3CCCN3C)nc3c2CCN(c2cccc4ncccc24)C3)CC1CC#N (stereo partly drawn) [Example 294, 2-[4-[2-[[(2S)-1-methylpyrrolidin-2-yl]methoxy]-7-(5-quinolyl)-6,8-dihydro-5H-pyrido[3,4-d]pyrimidin-4-yl]-1-prop-2-enoyl-piperazin-2-yl]acetonitrile]
IC50 [1]: > 1 µM
POC (KRas G12C): C (“C”>50% POC)

C=CC(=O)N1CCN(c2nc(N3CCCC(N(C)C)C3)nc3c2CCN(c2cccc4ccccc24)C3)C[C@@H]1CC#N (stereo partly drawn) [Example 404, 2-((2S)-1-acryloyl-4-(2-(3-(dimethylamino)piperidin-1-yl)-7-(naphthalen-1-yl)-5,6,7,8-tetrahydropyrido[3,4-d]pyrimidin-4-yl)piperazin-2-yl)acetonitrile]
IC50 ([1]; Homo sapiens, NCI-H358, 3 h): 0.0001 to 1 µM
POC (KRas G12C): C (“C”>50% POC)

C=CC(=O)N1CCN(c2nc(OC[C@@H]3CCCCN3C)nc3c2CCN(c2cc(O)cc4ccccc24)C3)CC1 [Example 196, (S)-1-(4-(7-(3-hydroxynaphthalen-1-yl)-2-((1-methylpiperidin-2-yl)methoxy)-5,6,7,8-tetrahydropyrido[3,4-d]pyrimidin-4-yl)piperazin-1-yl)prop-2-en-1-one]
IC50 ([1]; Homo sapiens, NCI-H358, 3 h): 0.0001 to 1 µM
POC (KRas G12C): C (“C”>50% POC)

C/C=C/C(=O)N1CCN(c2nc(OC[C@@H]3CCCN3C)nc3c2CCN(c2cccc4ccccc24)C3)CC1CC#N (stereo partly drawn) [Example 263, 2-[1-[(E)-but-2-enoyl]-4-[2-[[(2S)-1-methylpyrrolidin-2-yl]methoxy]-7-(1-naphthyl)-6,8-dihydro-5H-pyrido[3,4-d]pyrimidin-4-yl]piperazin-2-yl]acetonitrile]
IC50 ([1]; Homo sapiens, NCI-H358, 3 h): 0.0001 to 1 µM
POC (KRas G12C): C (“C”>50% POC)

C=CC(=O)N1CCN(c2nc(OC[C@@H]3CCN(C)C3)nc3c2CCN(c2cc(O)cc4ccccc24)C3)CC1 [Example 110, (R)-1-(4-(7-(3-hydroxynaphthalen-1-yl)-2-((1-methylpyrrolidin-3-yl)methoxy)-5,6,7,8-tetrahydropyrido[3,4-d]pyrimidin-4-yl)piperazin-1-yl)prop-2-en-1-one]
IC50 ([1]; Homo sapiens, NCI-H358, 3 h): 0.0001 to 1 µM
POC (KRas G12C): C (“C”>50% POC)

C=CC(=O)N1CCN(c2nc(OC[C@@H]3C[C@@H](O)CN3C)nc3c2CCN(c2cccc4ccccc24)C3)C[C@@H]1CC#N [Example 315, 2-[(2S)-4-[2-[[(2S,4R)-4-hydroxy-1-methyl-pyrrolidin-2-yl]methoxy]-7-(1-naphthyl)-6,8-dihydro-5H-pyrido[3,4-d]pyrimidin-4-yl]-1-prop-2-enoyl-piperazin-2-yl]acetonitrile]
IC50 ([1]; Homo sapiens, NCI-H358, 3 h): 0.0001 to 1 µM
POC (KRas G12C): C (“C”>50% POC)

C=CC(=O)N1CCN(c2nc(OCCN(C)C)nc3c2CCN(c2cc(O)cc4ccccc24)C3)CC1CC#N (centres unmarked) [Example 170, 2-(1-acryloyl-4-(2-(2-(dimethylamino)ethoxy)-7-(3-hydroxynaphthalen-1-yl)-5,6,7,8-tetrahydropyrido[3,4-d]pyrimidin-4-yl)piperazin-2-yl)acetonitrile]
IC50 ([1]; Homo sapiens): 0.0001 to 1 µM
POC (KRas G12C): C (“C”>50% POC)

C=CC(=O)N1CCN(c2nc(O[C@H]3CCCN(C)C3)nc3c2CCN(c2cc(O)cc4ccccc24)C3)CC1 [Example 66, (S)-1-(4-(7-(3-hydroxynaphthalen-1-yl)-2-((1-methylpiperidin-3-yl)oxy)-5,6,7,8-tetrahydropyrido[3,4-d]pyrimidin-4-yl)piperazin-1-yl)prop-2-en-1-one]
IC50 ([1]; Homo sapiens, NCI-H358, 3 h): > 1 µM
POC (KRas G12C): C (“C”>50% POC)

C=CC(=O)N1CCN(c2nc(OC[C@@H]3CCCN3C)nc3c2CCN(c2c(OC)ccc4[nH]ncc24)C3)CC1 [Example 157, (S)-1-(4-(7-(5-methoxy-1H-indazol-4-yl)-2-((1-methylpyrrolidin-2-yl)methoxy)-5,6,7,8-tetrahydropyrido[3,4-d]pyrimidin-4-yl)piperazin-1-yl)prop-2-en-1-one]
IC50 ([1]; Homo sapiens, NCI-H358, 3 h): > 1 µM
POC (KRas G12C): C (“C”>50% POC)

C=CC(=O)N1CCN(c2nc(OC[C@@H]3CCCN3C)nc3c2CCN(c2cccc4ccc(F)cc24)C3)C[C@@H]1CC#N [Example 333, 2-[(2S)-4-[7-(7-fluoro-1-naphthyl)-2-[[(2S)-1-methylpyrrolidin-2-yl]methoxy]-6,8-dihydro-5H-pyrido[3,4-d]pyrimidin-4-yl]-1-prop-2-enoyl-piperazin-2-yl]acetonitrile]
IC50 ([1]; Homo sapiens, NCI-H358, 3 h): 0.0001 to 1 µM
POC (KRas G12C): C (“C”>50% POC)

C=CC(=O)N1CCN(c2nc(OCCCN3CCOCC3)nc3c2CCN(c2c(C(F)(F)F)ccc4[nH]ncc24)C3)CC1 [Example 180, 1-[4-[2-(3-morpholinopropoxy)-7-[5-(trifluoromethyl)-1H-indazol-4-yl]-6,8-dihydro-5H-pyrido[3,4-d]pyrimidin-4-yl]piperazin-1-yl]prop-2-en-1-one]
IC50 ([1]; Homo sapiens): 0.0001 to 1 µM
POC (KRas G12C): C (“C”>50% POC)

C=CC(=O)N1CCN(c2nc(OCCCN3CCOCC3)nc3c2CCN(c2cc(O)ccc2F)C3)CC1 [Example 42, 1-(4-(7-(2-fluoro-5-hydroxyphenyl)-2-(3-morpholinopropoxy)-5,6,7,8-tetrahydropyrido[3,4-d]pyrimidin-4-yl)piperazin-1-yl)prop-2-en-1-one]
IC50 ([1]; Homo sapiens): > 1 µM
POC (KRas G12C): A (“A”≤25% POC)

C=CC(=O)N1CCN(c2nc(OC[C@@H]3CCN(C)C3)nc3c2CCN(c2ccccc2C(F)(F)F)C3)CC1CC#N (stereo partly drawn) [Example 298, 2-(1-acryloyl-4-(2-(((R)-1-methylpyrrolidin-3-yl)methoxy)-7-(2-(trifluoromethyl)phenyl)-5,6,7,8-tetrahydropyrido[3,4-d]pyrimidin-4-yl)piperazin-2-yl)acetonitrile]
IC50 [1]: 0.0001 to 1 µM
POC (KRas G12C): C (“C”>50% POC)

C=CC(=O)N1CCN(c2nc(OCCN3CCC[C@H](F)C3)nc3c2CCN(c2cc(O)cc4ccccc24)C3)CC1 [Example 111, (S)-1-(4-(2-(2-(3-fluoropiperidin-1-yl)ethoxy)-7-(3-hydroxynaphthalen-1-yl)-5,6,7,8-tetrahydropyrido[3,4-d]pyrimidin-4-yl)piperazin-1-yl)prop-2-en-1-one]
IC50 ([1]; Homo sapiens, NCI-H358, 3 h): 0.0001 to 1 µM
POC (KRas G12C): C (“C”>50% POC)

C=CC(=O)N1CCN(c2nc(OC[C@@H]3CCCN3C)nc3c2CCN(c2cccc(F)c2F)C3)C[C@@H]1CC#N [Example 406, 2-((S)-1-acryloyl-4-(7-(2,3-difluorophenyl)-2-(((S)-1-methylpyrrolidin-2-yl)methoxy)-5,6,7,8-tetrahydropyrido[3,4-d]pyrimidin-4-yl)piperazin-2-yl)acetonitrile]
IC50 ([1]; Homo sapiens, NCI-H358, 3 h): > 1 µM
POC (KRas G12C): C (“C”>50% POC)

C=CC(=O)N1CCN(c2ncnc3c2CCN(c2cncc4ccccc24)C3)CC1 [Example 69, 1-(4-(7-(isoquinolin-4-yl)-5,6,7,8-tetrahydropyrido[3,4-d]pyrimidin-4-yl)piperazin-1-yl)prop-2-en-1-one]
IC50 ([1]; Homo sapiens): > 1 µM
POC (KRas G12C): A (“A”≤25% POC)

C=CC(=O)N1CCN(c2nc(O[C@H](C)CN(C)C)nc3c2CCN(c2c(C)ccc4[nH]ncc24)C3)CC1 [Example 162, 1-[4-[2-[(1R)-2-(dimethylamino)-1-methyl-ethoxy]-7-(5-methyl-1H-indazol-4-yl)-6,8-dihydro-5H-pyrido[3,4-d]pyrimidin-4-yl]piperazin-1-yl]prop-2-en-1-one]
IC50 ([1]; Homo sapiens): > 1 µM
POC (KRas G12C): B (“B”>25% POC−≤50% POC)

C=CC(=O)N1CCN(c2nc(OC[C@@H]3CCCN3C)nc3c2CCN(c2cccc(OC)c2C)C3)C[C@@H]1CC#N [Example 324, 2-[(2S)-4-[7-(3-methoxy-2-methyl-phenyl)-2-[[(2S)-1-methylpyrrolidin-2-yl]methoxy]-6,8-dihydro-5H-pyrido[3,4-d]pyrimidin-4-yl]-1-prop-2-enoyl-piperazin-2-yl]acetonitrile]
IC50 ([1]; Homo sapiens, NCI-H358, 3 h): 0.0001 to 1 µM
POC (KRas G12C): C (“C”>50% POC)
